Counter-ions that a name gives are not always drawn.
How the values were obtained:
[1] = molecular target: T1, Human recombinant enteropeptidase (Homo sapiens, UniProt P98073); assay: Human enteropeptidase inhibitory activity; type: biochemical; conditions: 1 μM test compound; fluorescence intensity at 2 hours after start of reaction; read-out: Inhibition rate at 1 μM
T1 construct: purchased ITSI-Biosciences LLC #REN-260
Procedure: Test Example 1: Human Enteropeptidase Inhibitory Activity
Human recombinant enteropeptidase (#REN-260, ITSI-Biosciences LLC) was diluted with an assay buffer (50 mM Tricine, pH 8.0, 0.01 (w/v) %, Tween 20, 10 mM CaCl2)) to prepare a 24 mU/mL enzyme solution. Subsequently, 5FAM-Abu-Gly-Asp-Asp-Asp-Lys-Ile-Val-Gly-Gly-Lys(CPQ2)-Lys-Lys-NH2 (CPC Scientific Inc.) was diluted with the assay buffer to prepare a 2.1 μM substrate solution. A test compound is dissolved in DMSO into a 10 mM solution, and the solution was diluted with the assay buffer to give a compound solution. To a 384-well black plate (#784076, Greiner Bio-One), 5 μL of the compound solution and 5 μL of the substrate solution were added and mixed, and 5 μL of the enzyme solution was then added to the mixture, followed by mixing to start the reaction. The fluorescence intensity was measured with a fluorescence plate reader EnVision (The Perkin-Elmer Corp.) at an excitation wavelength of 485 nm and a fluorescence wavelength of 535 nm. The same reaction as above was performed without the addition of the test compound (test compound non-addition group). Furthermore, the same reaction as above was performed without the addition of the test compound and the enzyme (control group). The inhibition rate was calculated using the fluorescence intensity at 2 hours after the start of the reaction by the following expression:
Inhibition rate (%)=(1−((fluorescence intensity of test compound addition group)−(fluorescence intensity of control group))/((fluorescence intensity of test compound non-addition group)−(fluorescence intensity of control group)))×100

High fat diet-fed mice = assay: Fecal protein concentration-increasing test using high fat diet-fed mouse; type: in vivo; conditions: 30 mg/kg oral, feces of first day of administration; for response vs control in vivo at 30 mg/kg: Mus musculus, po, 24 h, vehicle group = 100, read-out: Fecal protein concentration-increasing rate
From the text: Test Example 2: Fecal Protein Concentration-Increasing Test Using High Fat Diet-Fed Mouse
High fat diet-fed mice (D12451 diet, male, 10- to 50-week old) were orally administered with a 0.5% methyl cellulose suspension containing a test compound (compound administration group, five mice per group) or a 0.5% methyl cellulose suspension (compound non-administration group (vehicle group), five mice per group), and whole feces were collected on the first day of administration. Dried feces were dissolved in 0.5 N NaOH, followed by centrifugation at 12,000 rpm. The protein concentration in the supernatant was then quantitatively measured (Lowry method), and the amount of protein contained in 1 g of feces was calculated as the fecal protein concentration (mg/g feces). The fecal protein concentration-increasing rate was calculated by the following expression.
Fecal protein concentration-increasing rate (%)=Fecal protein concentration of compound administration group/Fecal protein concentration of vehicle group×100

[2] = system: Diet-induced obesity (DIO) mice; assay: Anti-obesity effect test using DIO mouse; type: in vivo; conditions: for Body weight (g) At start of administration: average at start of administration; for Body weight (g) After 7-day administration: average; for Fecal protein concentration-increasing rate (%): feces of eighth day, vehicle = 100
Procedure: Test Example 3: Anti-Obesity Effect Test Using DIO Mouse
Diet-induced obesity (DIO) mice (D12451 diet, male, 26-week old) were orally administered with a 0.5% methyl cellulose suspension containing a test compound (30 mg/kg) (compound administration group, five mice per group) or a 0.5% methyl cellulose suspension (compound non-administration group (vehicle), five mice per group) once a day for seven days, and whole feces were collected on the eighth day of administration. Dried feces were dissolved in 0.5 N NaOH, followed by centrifugation at 12,000 rpm. The protein concentration in the supernatant was then quantitatively measured (Lowry method), and the amount of protein contained in 1 g of feces was calculated as the fecal protein concentration (mg/g feces). The fecal protein concentration-increasing rate was calculated by the following expression.
Fecal protein concentration-increasing rate (%)=Fecal protein concentration of compound administration group/Fecal protein concentration of vehicle group X 100
The fecal protein concentration-increasing rate and the averages of the body weights at the start of administration and after administration for seven days are shown in Table 6.
Also, DIO mice (D12451 diet, male, 59-week old) were orally administered with a 0.5% methyl cellulose suspension containing a test compound (20 mg/kg) (compound administration group, five mice per group) or a 0.5% methyl cellulose suspension (compound non-administration group (vehicle), five mice per group) once a day for seven days, and whole feces were collected on the eighth day of administration. The fecal protein concentration (mg/g feces) was calculated by the method described above. The fecal protein concentration-increasing rate and the averages of the body weights at the start of administration and after administration for seven days are shown in Table 7.

[3] = DIO mice 26-week old, 30 mg/kg oral once a day for seven days
[4] = DIO mice 59-week old, 20 mg/kg oral once a day for seven days

T1 sequence (P98073 whole entry): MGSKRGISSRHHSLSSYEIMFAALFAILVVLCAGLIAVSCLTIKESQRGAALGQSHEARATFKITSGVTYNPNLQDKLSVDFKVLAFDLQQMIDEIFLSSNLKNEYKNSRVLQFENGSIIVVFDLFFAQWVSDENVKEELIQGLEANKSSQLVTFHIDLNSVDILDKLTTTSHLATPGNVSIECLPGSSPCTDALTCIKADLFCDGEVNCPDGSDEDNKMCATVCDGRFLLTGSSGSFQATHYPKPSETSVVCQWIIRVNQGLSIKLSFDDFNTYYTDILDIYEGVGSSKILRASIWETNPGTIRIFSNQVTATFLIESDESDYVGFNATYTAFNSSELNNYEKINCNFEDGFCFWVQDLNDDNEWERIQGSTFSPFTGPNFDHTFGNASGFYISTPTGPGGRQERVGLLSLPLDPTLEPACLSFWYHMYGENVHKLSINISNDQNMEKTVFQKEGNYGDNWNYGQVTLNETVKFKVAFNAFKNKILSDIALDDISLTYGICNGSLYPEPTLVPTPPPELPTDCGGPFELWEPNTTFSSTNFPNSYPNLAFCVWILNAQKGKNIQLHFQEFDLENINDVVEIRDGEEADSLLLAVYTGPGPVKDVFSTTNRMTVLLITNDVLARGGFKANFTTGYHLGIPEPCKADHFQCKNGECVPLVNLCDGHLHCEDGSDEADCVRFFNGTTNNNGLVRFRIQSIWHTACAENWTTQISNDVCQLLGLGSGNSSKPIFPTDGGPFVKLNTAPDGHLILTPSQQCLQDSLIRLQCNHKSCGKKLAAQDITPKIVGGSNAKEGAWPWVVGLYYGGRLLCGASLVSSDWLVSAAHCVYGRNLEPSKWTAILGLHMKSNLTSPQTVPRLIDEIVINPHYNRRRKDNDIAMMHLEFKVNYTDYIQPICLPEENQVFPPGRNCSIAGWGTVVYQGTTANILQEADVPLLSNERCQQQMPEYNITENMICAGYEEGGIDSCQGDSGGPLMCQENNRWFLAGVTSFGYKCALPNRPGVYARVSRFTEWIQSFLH

inhibition at 1 µM [1] [%] | Structure (SMILES) | response vs control in vivo at 30 mg/kg (High fat diet-fed mice) [%] | further results
98 | N=C(N)Nc1ccc(C(=O)Oc2cc(OCCOCCOCCOc3cc(OC(=O)c4ccc(NC(=N)N)cc4)cc(C(=O)N[C@@H](CC(=O)O)C(=O)O)c3)cc(C(=O)N[C@@H](CC(=O)O)C(=O)O)c2)cc1 [Example 1, (2S)-2-[[3-[2-[2-[2-[3-[[(1S)-1,2-Dicarboxyethyl]carbamoyl]-5-(4-guanidinobenzoyl)oxyphenoxy]ethoxy]ethoxy]ethoxy]-5-(4-guanidinobenzoyl)oxybenzoyl]amino]butanedioic acid ditrifluoroacetate] | 159 | –
98 | N=C(N)Nc1ccc(C(=O)Oc2cc(OCCOCCOCCOCCOCCOc3cc(OC(=O)c4ccc(NC(=N)N)cc4)cc(C(=O)N[C@@H](CC(=O)O)C(=O)O)c3)cc(C(=O)N[C@@H](CC(=O)O)C(=O)O)c2)cc1 [Example 2, (2S)-2-[[3-[2-[2-[2-[2-[2-[3-[[(1S)-1,2-Dicarboxyethyl]carbamoyl]-5-(4-guanidinobenzoyl)oxyphenoxy]ethoxy]ethoxy]ethoxy]ethoxy]ethoxy]-5-(4-guanidinobenzoyl)oxybenzoyl]amino]butanedioic acid] | 142 | –
98 | N=C(N)Nc1ccc(C(=O)Oc2cc(OCCOCCOCCOCCOCCOCCOCCOc3cc(OC(=O)c4ccc(NC(=N)N)cc4)cc(C(=O)N[C@@H](CC(=O)O)C(=O)O)c3)cc(C(=O)N[C@@H](CC(=O)O)C(=O)O)c2)cc1 [Example 3, (2S)-2-[[3-[2-[2-[2-[2-[2-[2-[2-[3-[[(1S)-1,2-Dicarboxyethyl]carbamoyl]-5-(4-guanidinobenzoyl)oxyphenoxy]ethoxy]ethoxy]ethoxy]ethoxy]ethoxy]ethoxy]ethoxy]-5-(4-guanidinobenzoyl)oxybenzoyl]amino]butanedioic acid] | 152 | –
– | N=C(N)Nc1ccc(C(=O)Oc2ccc(CCC(=O)N[C@@H](CC(=O)O)C(=O)O)c(OCCOCCOCCOc3cc(OC(=O)c4ccc(NC(=N)N)cc4)ccc3CCC(=O)N[C@@H](CC(=O)O)C(=O)O)c2)cc1 [Example 4, (2S)-2-[3-[2-[2-[2-[2-[2-[3-[[(1S)-1,2-Dicarboxyethyl]amino]-3-oxopropyl]-5-(4-guanidinobenzoyl)oxyphenoxy]ethoxy]ethoxy]ethoxy]-4-(4-guanidinobenzoyl)oxyphenyl]propanoylamino]butanedioic acid ditrifluoroacetate] | – | Fecal protein concentration-increasing rate (High fat diet-fed mice; vehicle group = 100, ditrifluoroacetate): 181%
99 | N=C(N)Nc1ccc(C(=O)Oc2cc(OCCOCCOCCOc3cc(OC(=O)c4ccc(NC(=N)N)cc4)cc(C(=O)N(CC(=O)O)CC(=O)O)c3)cc(C(=O)N(CC(=O)O)CC(=O)O)c2)cc1 [Example 5, 2-[[3-[2-[2-[2-[3-[Bis(carboxymethyl)carbamoyl]-5-(4-guanidinobenzoyl)oxyphenoxy]ethoxy]ethoxy]ethoxy]-5-(4-guanidinobenzoyl)oxybenzoyl]-(carboxymethyl)amino]acetic acid ditrifluoroacetate] | 158 | –
100 | N=C(N)Nc1ccc(C(=O)Oc2cc(OCCOCCOCCOc3cc(OC(=O)c4ccc(NC(=N)N)cc4)cc(C(=O)N[C@H](CC(=O)O)C(=O)O)c3)cc(C(=O)N[C@H](CC(=O)O)C(=O)O)c2)cc1 [Example 6, (2R)-2-[[3-[2-[2-[2-[3-[[(1R)-1,2-Dicarboxyethyl]carbamoyl]-5-(4-guanidinobenzoyl)oxyphenoxy]ethoxy]ethoxy]ethoxy]-5-(4-guanidinobenzoyl)oxybenzoyl]amino]butanedioic acid ditrifluoroacetate] | 203 | –
100 | N=C(N)c1ccc(OC(=O)c2cc(OCCOCCOCCOc3cc(C(=O)N[C@@H](CC(=O)O)C(=O)O)cc(C(=O)Oc4ccc(C(=N)N)cc4)c3)cc(C(=O)N[C@@H](CC(=O)O)C(=O)O)c2)cc1 [Example 7, (2S)-2-[[3-(4-Carbamimidoylphenoxy)carbonyl-5-[2-[2-[2-[3-(4-carbamimidoylphenoxy)carbonyl-5-[[(1S)-1,2-dicarboxyethyl]carbamoyl]phenoxy]ethoxy]ethoxy]ethoxy]benzoyl]amino]butanedioic acid ditrifluoroacetate] | 115 | –
100 | N=C(N)Nc1ccc(C(=O)Oc2cc(OCCOCCOc3cc(OC(=O)c4ccc(NC(=N)N)cc4)cc(C(=O)N[C@@H](CC(=O)O)C(=O)O)c3)cc(C(=O)N[C@@H](CC(=O)O)C(=O)O)c2)cc1 [Example 8, (2S)-2-[[3-[2-[2-[3-[[(1S)-1,2-Dicarboxyethyl]carbamoyl]-5-(4-guanidinobenzoyl)oxyphenoxy]ethoxy]ethoxy]-5-(4-guanidinobenzoyl)oxybenzoyl]amino]butanedioic acid ditrifluoroacetate] | 210 | –
100 | N=C(N)Nc1ccc(C(=O)Oc2cc(OCCOc3cc(OC(=O)c4ccc(NC(=N)N)cc4)cc(C(=O)N[C@@H](CC(=O)O)C(=O)O)c3)cc(C(=O)N[C@@H](CC(=O)O)C(=O)O)c2)cc1 [Example 9, (2S)-2-[[3-[2-[3-[[(1S)-1,2-Dicarboxyethyl]carbamoyl]-5-(4-guanidinobenzoyl)oxyphenoxy]ethoxy]-5-(4-guanidinobenzoyl)oxybenzoyl]amino]butanedioic acid] | 195 | –
– | N=C(N)Nc1ccc(C(=O)Oc2cc(OCCOCCOc3cc(OC(=O)c4ccc(NC(=N)N)cc4)cc(C(=O)N[C@@H](CC(=O)O)C(=O)O)c3)cc(C(=O)N[C@@H](CC(=O)O)C(=O)O)c2)cc1 [Example 17, (2S)-2-[[3-[2-[2-[3-[[(1S)-1,2-Dicarboxyethyl]carbamoyl]-5-(4-guanidinobenzoyl)oxyphenoxy]ethoxy]ethoxy]-5-(4-guanidinobenzoyl)oxybenzoyl]amino]butanedioic acid dihydrochloride] | – | Body weight (g) At start of administration ([2]; DIO mice 26-week old, 30 mg/kg group): 45.6 g; Body weight (g) After 7-day administration [2, 3]: 44.3 g; Fecal protein concentration-increasing rate (%) [2, 3]: 252%
– | N=C(N)Nc1ccc(C(=O)Oc2ccc(C(=O)N[C@H](CC(=O)O)C(=O)O)c(OCCOc3cc(OC(=O)c4ccc(NC(=N)N)cc4)ccc3C(=O)N[C@H](CC(=O)O)C(=O)O)c2)cc1 [Example 22, (2R)-2-[[2-[2-[2-[[(1R)-1,2-Dicarboxyethyl]carbamoyl]-5-(4-guanidinobenzoyl)oxyphenoxy]ethoxy]-4-(4-guanidinobenzoyl)oxybenzoyl]amino]butanedioic acid dihydrochloride] | – | Body weight (g) At start of administration ([2]; DIO mice 59-week old, 20 mg/kg group): 56.5 g; Body weight (g) After 7-day administration [2, 4]: 55.1 g; Fecal protein concentration-increasing rate (%) [2, 4]: 221%

Source: US20210403420A1, “BENZOATE COMPOUND” (SCOHIA PHARMA, INC., priority 2018, published 2021)
